{"source": "patent US7989466B2", "about": "“Methods to inhibit or augment an inflammatory response” (Cambridge Enterprise Limited, priority 1999, dated 2011)", "key": {"B cells": {"system": "B cells", "type": "cell-based"}, "∂-opioid receptors": {"target": "T1, ∂-opioid receptors (Homo sapiens, UniProt P41143)", "T1 construct": "purchased RBI/Sigma 0-116", "T1 sequence (P41143 whole entry)": "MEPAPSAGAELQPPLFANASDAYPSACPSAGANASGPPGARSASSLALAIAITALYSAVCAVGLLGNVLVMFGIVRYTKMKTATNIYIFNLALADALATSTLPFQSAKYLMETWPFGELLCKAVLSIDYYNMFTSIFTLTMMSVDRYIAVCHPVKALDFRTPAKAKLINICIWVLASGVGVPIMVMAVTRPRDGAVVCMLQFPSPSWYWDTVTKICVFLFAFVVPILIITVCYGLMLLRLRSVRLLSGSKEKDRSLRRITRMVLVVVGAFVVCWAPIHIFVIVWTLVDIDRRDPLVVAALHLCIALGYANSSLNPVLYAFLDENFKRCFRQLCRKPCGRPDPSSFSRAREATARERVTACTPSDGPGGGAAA", "assay": "Opioid receptor membrane binding (3H-Diprenorphine)", "protocol": "For opioid receptor binding, membranes (0-116, RBI/Sigma) are diluted into binding buffer (75 mM Tris pH 7.4, 12.5 mM MgCl2 and 2 mM EDTA). For example, 10 μl of membranes are diluted in 500 μl of binding buffer (i.e., 1:50 dilution), which is aliquoted into labelled tubes. Cold competitor or test competitor is added (e.g. 5 μl of 100× stock solution; 5 μl of 100 μM naltrindole solution (N-115, RBI/Sigma in DMSO). Radioligand is then added (^3H-Diprenorphine, TRK 1060, Amersham, 250 μCi in 250 μl, 10.5 μM at 95 Ci/mmol). For competition studies, 0.5 nM is used. A 100× stock (i.e., […]) is made by diluting the commercial stock 1:210 in binding buffer, and 5 μl is added to every tube. Control tubes have radioligand but no membranes. The mixtures are vortexed, then spun very briefly. The mixtures are then incubated for 1 hour at 27° C. in a water bath. The mixture is filtered through GF/C filters over a vacuum. Each filter is pre-soaked in polyethyleneimine (0.3% in water; add 1 ml of 10% stock (P-261; RBI/Sigma) to 33 ml of MilliQ water). The tubes are washed with 2-3 ml of wash buffer (50 mM Tris pH 7.4) and the wash filtered. The filters are then rinsed with 3×5 ml of wash buffer, air dried, placed in a scintillation vial and 4.5 ml of scintillant added. The activity on the filter is then determined."}, "CD4 T cells": {"system": "CD4 T cells", "details": "5 ng"}, "[1]": {"target": "recombinant human chemokine receptors (CCR1-5, CXCR4, CXCR1, CXCR2)", "assay": "Binding of biotin-labeled peptides to chemokine receptor expressing HOS/CHO lines", "details": "no evidence for any binding; read-out: affinity of any binding to recombinant human chemokine receptors", "protocol": "Iodinated-RANTES and iodinated-MCP-1 (Amersham) were reconstituted in MilliQ water to a concentration of 50 nM (0.1 μCi/μl) with a specific activity of 2000 Ci/mmole. Iodinated-streptavidin was obtained (Amersham) at a stock concentration of 47 nM (0.1 μCi/μl) and a specific activity of 38 μCi/μg (55,000 Da). Cold RANTES and MCP-1 were purchased from R&D Systems (Minneapolis, Minn.), reconstituted in sterile PBS+1 mg/ml fatty acid free BSA (FAF-BSA) (Sigma A-6003) at 10 μg/ml ([…]). Cold streptavidin (Calbiochem) was reconstituted in sterile MilliQ to a concentration of 4 mg/ml (90 μM).\nFAF-BSA was used throughout. All experiments were performed in binding medium (50 mM HEPES, 1 mM CaCl2, 1 mM MgCl2, 0.5% FAF-BSA pH 7.5) as described by Ruffing et al. (Cell. Immunol., 189, 160 (1998)) unless stated otherwise. Reactions were all performed at 4° C. and all buffers were pre-cooled to 4° C. unless stated otherwise.\nThe biotinylated peptide was synthesized as an N-terminal biotin conjugate of the sequence n′-[…]-c′ (SEQ ID NO:152; Affiniti Research) and confirmed as >90% pure by HPLC. […]\nThe binding of labeled peptide 2 and labeled peptide 3 to the parental HOS, parental CHO and 8 chemokine receptor expressing lines was compared. […] The amount of streptavidin molecules added was calculated in each case to be approximately 50-fold in excess over the number of chemokine receptor sites. […]"}, "[2]": {"system": "MCP-1 co-mitogenic effect, cultured smooth muscle cells", "assay": "Co-mitogenic effect of MCP-1 on cultured smooth muscle cells", "type": "cell-based", "details": "100 μM; MCP-1 with 0.5% fetal calf serum", "protocol": "Many chemokines are co-mitogenic with low concentrations of FCS, e.g., 50 ng/ml MCP-1+0.5% FCS is a mitogen for smooth muscle cells. Assays well known to the art for determination of DNA synthesis induced by any known chemokine plus a low concentration (<5%) of FCS on suitable cells (e.g., smooth muscle cells) in the presence and absence of the agent may be employed to screen agents for such inhibitory activity. See Porreca et al., J. Vasc. Res., 34, 58 (1997), the disclosure of which is incorporated by reference herein.\nPeptide 3(1-12)[MCP-1] […] MCP-1 has been reported to be a weak co-mitogen with 0.5% fetal calf serum for cultured smooth muscle cells. […] (SEQ ID NO:1) is an MCP-1 receptor antagonist. The observation that peptide 3(1-12)[MCP-1]"}, "[3]": {"system": "chemokine receptors on the surface of Jurkat cells", "assay": "Binding to chemokine receptors on Jurkat cells", "set-up": "species or system human", "protocol": "For Scatchard analysis, the absorbance readings at 450 nm were calibrated, by reference to a standard curve in which known amounts of labeled peptide were coupled to derivatized sepharose beads (activated thiol-sepharose 4B; Sigma T8512) via the cysteine residue in each peptide. Briefly, known amounts (1 fmol to 1 pmol) of biotin-labeled peptide were incubated with 1 mg of activated thiol-sepharose beads in 100 μl of PBS at 37° C. for 1 hour. Free activated thiols were then blocked by addition of cysteine to a final concentration of 10 mM. The peptide-conjugated beads were then washed 5 times in PBS and treated exactly as for the cells described above. The absorbance at 450 nm obtained when a known amount of peptide was coupled to the beads was used to construct a standard curve which was used to convert the absorbance readings obtained with cells into number of molecules of labeled peptide which had bound."}}, "note": "pEC50, pKd: −log10 of the molar value. Positions of bridges follow the written chain, without caps; N, C: chain ends. Non-standard residues stand in square brackets, D forms with d. Residues, ends and D or L forms follow the SMILES beside them. No end group written: not given here."}
{"compound": "CC[C@@H](C)[C@H]1NC(=O)[C@@H](CCC(N)=O)NC(=O)[C@H](N)CSSC[C@H](C(N)=O)NC(=O)[C@@H](CC(C)C)NC(=O)[C@@H](CC(=O)O)NC(=O)[C@H]2CCCN2C(=O)[C@@H](CCCCN)NC(=O)[C@@H](CCC(N)=O)NC(=O)[C@@H](CCCCN)NC(=O)[C@@H](Cc2c[nH]c3ccccc23)NC1=O", "note": "(H-[dC][dQ][dI][dW][dK][dQ][dK][dP][dD][dL][dC]-NH2; disulfide 1-11; N-terminus assumed)", "values": [{"measurement": "effect on proliferation of B cells to tetanus toxoid", "setting": "B cells", "value": "no effect"}, {"measurement": "pEC50", "setting": "∂-opioid receptors", "value": "< 4.00"}, {"measurement": "reduction of ConA proliferation of CD4 T cells", "setting": "CD4 T cells", "value": "< 3", "unit": "%"}]}
{"compound": "EICADPKQKWVQ [peptide 3(1-12)[MCP-1]]", "values": [{"measurement": "pKd", "setting": "[1]", "value": "< 5.00"}, {"measurement": "effect on the co-mitogenic effect of MCP-1 for cultured smooth muscle cells", "setting": "[2]", "value": "completely abolished"}]}
{"compound": "SYRRITSSKCPKEAV [peptide 2(1-15)[MCP-1]]", "values": [{"measurement": "B, binding sites on Jurkat cells", "setting": "[3]", "value": "55,000 sites/cell"}, {"measurement": "Ka, chemokine receptors on the surface of Jurkat cells", "setting": "[3]", "value": 250, "unit": "nM"}]}
